Experimental data: US4698339A, “Carbapenems, their production and use” (Takeda Chemical Industries, Ltd., priority 1983, dated 1987)
Converted amounts (≈) assume the structure as drawn.

What was measured:
[1] = system: Staphylococcus aureus FDA 209P; assay: MIC by agar dilution method, Staphylococcus aureus FDA 209P; assay type: cell-based; conditions: FDA209P, Trypticase soy agar, about 10^8 CFU/ml, 18 hours at 37° C., read-out: MIC (minimal inhibitory concentration)
Protocol: (§1) Several examples of the compound (I) as obtained in Examples were tested for MIC (mcg/ml) by the following method.
(§2) The MIC of each test compound was determined by the agar dilution method. Thus, 1.0 ml of each aqueous serial dilution of the test compound was poured into a petri dish and then […] of Trypticase soy agar was poured into the dish followed by intimate mixing. The mixed agar plate was smeared with the suspension of a test organism (about 10^8 CFU/ml).
(1) Staphylococcus aureus FDA 209P

Escherichia coli 0-111 = assay: MIC by agar dilution method, Escherichia coli 0-111; assay type: cell-based; conditions: 0111, Trypticase soy agar, about 10^8 CFU/ml, 18 hours at 37° C., read-out: MIC (minimal inhibitory concentration)
Protocol: as §1, §2
(2) Escherichia coli 0-111

[2] = system: Citrobacter freundii IFO 12681; assay: MIC by agar dilution method, Citrobacter freundii IFO 12681; assay type: cell-based; conditions: IFO12681, Trypticase soy agar, about 10^8 CFU/ml, 18 hours at 37° C., read-out: MIC (minimal inhibitory concentration)
Protocol: as §1, §2
(3) Citrobacter freundii IFO 12681

Klebsiella pneumoniae DT = assay: MIC by agar dilution method, Klebsiella pneumoniae DT; assay type: cell-based; conditions: Trypticase soy agar, about 10^8 CFU/ml, 18 hours at 37° C., read-out: MIC (minimal inhibitory concentration)
Protocol: as §1, §2
(4) Klebsiella pneumoniae DT

[3] = stability against a mouse kidney homogenate; assay type: in vitro ADME; conditions: 0.05M phosphate buffer (pH 6.9), 30° C., test compound solution 1 mg/ml mixed 1:1, read-out: Half life (T1/2)
Protocol: Several examples of the objective compound (I) as obtained in Examples were tested for stability against a mouse Kidney homogenate by the following method.
A kidney homogenate was prepared by grinding down 50 g of the mouse kidney in 200 ml of cooled 0.05M phosphate buffer (pH 6.9) and stored at -20° C. A 200 μl portion of this mouse kidney homogenate and 200 μl of an aqueous solution of the test compound (1 mg/ml) were intimately mixed and kept at 30° C. At 10-minute intervals, a 25 μl portion of the mixture was taken and added to 25 μl of ice bath-cooled methanol to thereby terminate the reaction between renal enzymes and the test compound. The amount of the remaining test compound was determined by measuring the inhibitory action against β-lactamaseproduced by Proteus vulgaris GN4413 or Enterobacter cloacae TN1282 by the method described in Journal of Antibiotics, 34, 212-217 (1981).

Compound: CC(=O)NCCSC1=C(C(=O)O)N2C(=O)[C@@H](C(O)CS(C)(=O)=O)[C@H]2C1 (stereo partly drawn) [12 (b), sodium 5,6-cis-3-(2-acetamidoethylthio)-6-(1-hydroxy-2-methylsulfonylethyl)-7-oxo-1-azabicyclo[3.2.0]hept-2-ene-2-carboxylate]
- MIC [1]: 1.56 µg/mL
- MIC (Escherichia coli 0-111): 0.39 µg/mL
- MIC [2]: 3.13 µg/mL
- MIC (Klebsiella pneumoniae DT): 1.56 µg/mL
- half-life [3]: > 2 h

Compound: CC(=O)NCCSC1=C(C(=O)O)N2C(=O)[C@@H](C3(O)CCS(=O)(=O)C3)[C@H]2C1 (stereo partly drawn) [Example 1 (c), Sodium 5,6-cis-3-(2-acetamidoethylthio)-6-(1-hydroxy-3-thiacyclopentyl-3,3-dioxido)-7-oxo-1-azabicyclo-[3.2.0]hept-2-ene-2-carboxylate]
- MIC [1]: 3.13 µg/mL
- MIC (Escherichia coli 0-111): 0.39 µg/mL
- MIC [2]: 3.13 µg/mL
- MIC (Klebsiella pneumoniae DT): 3.13 µg/mL
- half-life [3]: > 2 h

Compound: O=C(O)C1=C(Sc2ncccn2)C[C@@H]2[C@H](C3(O)CCS(=O)(=O)C3)C(=O)N12 (stereo partly drawn) [2 (b), sodium 5,6-cis-3-(2-pyrimidinylthio)-6-(1-hydroxy-3-thiacyclopentyl-3,3-dioxido)-7-oxo-1-azabicyclo[3.2.0]hept-2-ene-2-carboxylate]
- MIC [1]: 0.78 µg/mL
- MIC (Escherichia coli 0-111): 3.13 µg/mL
- MIC [2]: 6.25 µg/mL
- MIC (Klebsiella pneumoniae DT): 6.25 µg/mL
- half-life [3]: > 2 h

Compound: CCS(=O)(=O)CC(O)C1C(=O)N2C(C(=O)O)=C(SCCNC(C)=O)CC12 (stereo not drawn) [15 (b)]
- MIC [1]: 6.25 µg/mL (≈ 15.4 µM)
- MIC (Escherichia coli 0-111): 0.2 µg/mL (≈ 0.492 µM)
- MIC [2]: 3.13 µg/mL (≈ 7.7 µM)
- MIC (Klebsiella pneumoniae DT): 3.13 µg/mL (≈ 7.7 µM)
- half-life [3]: > 2 h

Compound: CC(=O)NCCSC1=C(C(=O)O)N2C(=O)C(C(O)CS(=O)(=O)c3ccccc3)C2C1 (stereo not drawn) [20 (b)]
- MIC [1]: 1.59 µg/mL (≈ 3.5 µM)
- MIC (Escherichia coli 0-111): 0.39 µg/mL (≈ 0.858 µM)
- MIC [2]: 1.56 µg/mL (≈ 3.43 µM)
- MIC (Klebsiella pneumoniae DT): 3.13 µg/mL (≈ 6.89 µM)
- half-life [3]: > 2 h

Compound: CC(=O)N/C=C/SC1=C(C(=O)O)N2C(=O)[C@@H](C3(O)CCS(=O)(=O)C3)[C@H]2C1 (stereo partly drawn) [13 (b), sodium 5,6-cis-3-[(E)-2-acetamidovinylthio]-6-(1-hydroxy-3-thiacyclopentyl-3,3-dioxido)-7-oxo-1-azabicyclo[3.2.0]hept-2-ene-2-carboxylate]
- MIC [1]: 1.56 µg/mL
- MIC (Escherichia coli 0-111): 0.39 µg/mL
- MIC [2]: 1.56 µg/mL
- MIC (Klebsiella pneumoniae DT): 0.78 µg/mL
- half-life [3]: > 2 h
